Laboratory results: patent US7319015B2, “Methods and compositions for using alveolar macrophage phospholipase A2” (The Regents of The University of Michigan, priority 2004, dated 2008)
“And” between values parts separate entries of the source, which are not always exact repeats. Identical values can stand only once. “Also recorded” adds a separate entry of the source. Like-named read-outs stand apart in the source and are kept apart here. Blank lines part the entries; values can stand above or below the molecule they belong to.

What was measured:
[1] = molecular target: T1, 1-O-acylceramide synthase (LPLA2) (Bos taurus, UniProt Q8WMP9); conditions: initial characterization of the enzyme, cited from earlier work
T1 sequence (Q8WMP9 30-407): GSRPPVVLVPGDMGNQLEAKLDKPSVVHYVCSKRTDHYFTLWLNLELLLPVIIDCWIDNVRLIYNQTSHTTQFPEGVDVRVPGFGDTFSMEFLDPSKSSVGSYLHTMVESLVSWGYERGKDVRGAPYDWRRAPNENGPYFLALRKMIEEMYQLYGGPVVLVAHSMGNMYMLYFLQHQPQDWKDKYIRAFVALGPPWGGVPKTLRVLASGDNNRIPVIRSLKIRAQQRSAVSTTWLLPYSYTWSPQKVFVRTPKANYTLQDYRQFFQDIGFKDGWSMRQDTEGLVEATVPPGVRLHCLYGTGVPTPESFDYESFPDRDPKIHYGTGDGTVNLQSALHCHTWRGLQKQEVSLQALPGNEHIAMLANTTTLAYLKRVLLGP

LPLA2 [2] = molecular target: T2, LPLA2 (Canis lupus familiaris, UniProt Q6XPZ3); assay: LPLA2 (transacylase/phospholipase A2) activity assay in MDCK cell homogenates with cationic amphiphilic drugs; assay type: biochemical; conditions: FIG. 1A; for inhibition of LPLA2 transacylase and phospholipase A2 activity (in words): enzyme assay for LPLA2 activity
T2 construct: endogenous in cells; host or cells: MDCK cell homogenate
T2 sequence (Q6XPZ3 32-408): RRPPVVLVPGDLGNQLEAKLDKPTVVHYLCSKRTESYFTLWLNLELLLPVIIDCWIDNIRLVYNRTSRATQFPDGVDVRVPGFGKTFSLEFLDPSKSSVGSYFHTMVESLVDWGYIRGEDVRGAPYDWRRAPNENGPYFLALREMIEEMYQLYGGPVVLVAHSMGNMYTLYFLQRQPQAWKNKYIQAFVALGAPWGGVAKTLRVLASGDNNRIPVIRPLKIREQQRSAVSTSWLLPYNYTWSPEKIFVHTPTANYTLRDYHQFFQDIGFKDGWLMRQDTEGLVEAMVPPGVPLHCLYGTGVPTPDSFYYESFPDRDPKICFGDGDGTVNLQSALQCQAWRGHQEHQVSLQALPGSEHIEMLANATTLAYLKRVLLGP
Procedure: (§1) Phospholipids, DOPC and PE, and N-acetylsphingosine (NAS) were used in the assay system as a donor and an acceptor, respectively, of an acyl group. The transacylase activity was determined by analysis of 1-O-acyl-N-acetylsphingosine formation rate. The reaction mixture consisted of 45 mM sodium citrate (pH 4.5), 10 μg/ml bovine serum albumin, 40 μM NAS incorporated into phospholipid liposomes (DOPC/PE/dicetyl phosphate/NAS (5:2:1:2 in molar ratio)) and soluble fraction (0.7-10 μg) in a total volume of 500 μl. The reaction was initiated by adding the soluble fraction, kept for 5-60 min at 37° C. and terminated by adding 3 ml of chloroform/methanol (2:1) plus 0.3 ml of 0.9% (w/v) NaCl. The mixture was centrifuged for 5 min at room temperature. The resultant lower layer was transferred into another glass tube and dried down under a stream of nitrogen gas. The dried lipid dissolved in 40 μl of chloroform/methanol (2:1) was applied on an HPTLC plate and developed in a solvent system consisting of chloroform/acetic acid (9:1). The plated was dried down and soaked in 8% (w/v) CuSO4, 5H2O, 6.8% (v/v) H3PO4, 32% (v/v) methanol. The uniformly wet plate was briefly dried down by a hair dryer and charred for 15 min in a 150° C. oven. The plate was scanned and the amount of the reaction products was estimated by NIH-image 1.62.
Res., 35:1232-1240, 1994]. PDMP and its related homologs contain a hydrophilic domain with a substituted nitrogen and a hydrophobic aromatic group, functional groups that are typical of CADs in general.

MDCK cells [3] = system: MDCK cells
MDCK cells [4] = conditions: MDCK cells treated at the IC50 for transacylase inhibition, 7 days, FIG. 2
CHO cells = CHO cells (Rosenwald and Pagano 1994); cited from earlier work
LPLA2 [5] = molecular target: LPLA2 (Rattus norvegicus, UniProt Q675A5); conditions: rat AM soluble fraction 2.42 μg protein/ml, citrate buffer pH 4.5, 40 μM NAS, different concentrations of MJ33
Procedure: as §1, with “The uniformly wet plate was briefly dried down by a hair dryer and charred for 15 min in a 150° C. oven. The plate was scanned and the amount of the reaction products was estimated by NIH-image 1.62.” left out
(§2) In the studies the effect of MJ33 on LPLA2 transacylation activity in rat alveolar macrophages and c-myc-tagged mouse LPLA2 transfected COS 7 cells was also determined. […] The enzyme activity was determined as described in the Example 1.

c-myc-tagged mouse LPLA2 = c-myc-tagged mouse LPLA2 (Mus musculus, UniProt Q8VEB4); conditions: soluble fraction of LPLA2 transfected COS 7 cells 2.26 μg protein/ml, citrate buffer pH 4.5, 40 μM NAS
Procedure: as §1, with “The uniformly wet plate was briefly dried down by a hair dryer and charred for 15 min in a 150° C. oven. The plate was scanned and the amount of the reaction products was estimated by NIH-image 1.62.” left out
as §2

[6] = system: surfactant phospholipid catabolism; conditions: rats treated with MJ33 (Fisher et al. 2001); cited from earlier work
[7] = system: dipalmitoyl-phosphatidylcholine degradation; conditions: murine lung, previously demonstrated; cited from earlier work

LPLA2 (Rattus norvegicus, UniProt Q675A5), sequence (Q675A5 34-413): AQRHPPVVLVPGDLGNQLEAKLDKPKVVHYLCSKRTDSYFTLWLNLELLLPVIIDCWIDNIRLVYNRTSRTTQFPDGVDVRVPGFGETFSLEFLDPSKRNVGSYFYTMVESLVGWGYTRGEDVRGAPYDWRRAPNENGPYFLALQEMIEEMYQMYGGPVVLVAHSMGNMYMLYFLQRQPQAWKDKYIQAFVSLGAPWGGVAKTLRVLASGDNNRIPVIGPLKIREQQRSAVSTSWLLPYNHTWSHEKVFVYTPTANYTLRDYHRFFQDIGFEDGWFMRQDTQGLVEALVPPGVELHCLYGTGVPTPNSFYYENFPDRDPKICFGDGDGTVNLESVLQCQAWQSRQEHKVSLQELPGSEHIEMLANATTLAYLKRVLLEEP
c-myc-tagged mouse LPLA2, sequence (Q8VEB4 34-412): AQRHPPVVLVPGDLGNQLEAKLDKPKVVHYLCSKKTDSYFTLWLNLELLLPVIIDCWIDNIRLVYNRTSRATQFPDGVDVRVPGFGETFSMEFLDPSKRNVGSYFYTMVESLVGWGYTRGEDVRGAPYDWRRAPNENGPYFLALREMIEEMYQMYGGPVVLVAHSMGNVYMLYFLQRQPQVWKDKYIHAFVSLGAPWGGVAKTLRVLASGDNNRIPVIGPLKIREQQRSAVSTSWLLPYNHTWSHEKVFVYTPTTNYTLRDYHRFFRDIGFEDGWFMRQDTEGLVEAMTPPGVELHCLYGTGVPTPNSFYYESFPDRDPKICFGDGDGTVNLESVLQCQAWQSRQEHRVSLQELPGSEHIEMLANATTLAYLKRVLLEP

Compound: CCCCC/C=C\C/C=C\C/C=C\C/C=C\CCCC(=O)C(F)(F)F [nonadecyltetraenyl trifluoromethyl ketone]
inhibition of enzyme activity [1]: insensitive; also recorded: did not inhibit

Compound: O=C1O/C(=C/Br)CCC1c1cccc2ccccc12 (centres unmarked) [bromoenollactone]
inhibition of enzyme activity [1]: did not inhibit
inhibition of enzyme activity ([1]; listed as bromoenol lactone): insensitive

Compound: CCCCCCCCCC(=O)N[C@H](CN1CCOCC1)[C@H](O)c1ccccc1 [PDMP, D-threo-1phenyl-2-decanoylamino-3-morphilino-propanol]
IC50 (LPLA2 [2]; enzyme assay for LPLA2 (transacylase) activity, read-out: IC50 / half maximal inhibition of LPLA2 activity): 30 µM and 50 µM
inhibition of LPLA2 transacylase and phospholipase A2 activity (in words) (LPLA2 [2]): potently inhibited
total phospholipid content (MDCK cells [3]; MDCK cells incubated for up to 7 days, 15 μM, FIG. 1B): Modest, but significant increases
content of phosphatidylethanolamine and phosphatidylcholine (MDCK cells [3]; MDCK cells, time-dependent changes, FIG. 1C/1D): increased
lysosomal phospholipid inclusions by electron microscopy (MDCK cells [4]): obvious lysosomal phospholipid inclusions
induction of lysosomal lamellar inclusions (CHO cells): induced lysosomal lamellar inclusions

More lines, main results first:

inhibition of LPLA2 transacylase and phospholipase A2 activity (in words) (LPLA2 [2]): comparable to but greater than PDMP
Compound: CCCCc1oc2ccccc2c1C(=O)c1cc(I)c(OCCN(CC)CC)c(I)c1 [Amiodarone, amiodarone]

inhibition of transacylase activity (LPLA2 [5]): concentration dependent inhibition
inhibition of transacylase activity (c-myc-tagged mouse LPLA2): comparable response
Compound: CCCCCCCCCCCCCCCCOCC(COCC(F)(F)F)OP(=O)(O)OC (centres unmarked) [MJ33]
inhibition of surfactant phospholipid catabolism [6]: 40 to 50%
block of dipalmitoyl-phosphatidylcholine degradation [7]: block the majority
